For experiment [1], the target named is T1, Atlantic cod estrogen receptor alpha (gmEra) LBD (Gadus morhua, UniProt U5ILH7).
T1 sequence (U5ILH7 170-455): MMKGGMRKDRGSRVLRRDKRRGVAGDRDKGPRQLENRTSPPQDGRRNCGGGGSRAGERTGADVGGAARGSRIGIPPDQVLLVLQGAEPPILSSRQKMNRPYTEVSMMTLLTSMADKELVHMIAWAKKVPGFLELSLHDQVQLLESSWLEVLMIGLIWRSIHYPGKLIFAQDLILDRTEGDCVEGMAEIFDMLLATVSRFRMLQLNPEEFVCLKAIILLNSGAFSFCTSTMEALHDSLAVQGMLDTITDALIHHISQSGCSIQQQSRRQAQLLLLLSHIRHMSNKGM
The experiment is described as follows: Luciferase reporter gene assay, gmEra agonism (estrogenic activity) in transfected COS-7 cells. As to conditions: luciferase reporter gene assay. How it is done: (§1) Ligand activation of gmEra and gmAra was studied with a luciferase reporter gene assay in COS-7 cells transiently transfected with the pCMX-GAL4(DBD)-gmEra(LBD) or pCMX-GAL4(DBD)-gmAra(LBD) plasmid by using the TransIT-LT1 reagent (TransIT-LT1 Transfection Reagent, Mirus). Cells were seeded into 96-well plates (5000 cells/well) and incubated for 24 h before cotransfection with the plasmid mixture (100 ng/well). The plasmid mixture contained GAL4-UAS luciferase reporter plasmid (tk-(MH100)x4 luc), the pCMX-GAL4(DBD)-gmEra(LBD) or pCMX-GAL4(DBD)-gmAra(LBD) receptor plasmids (2:1 reporter:receptor plasmid mass ratio), and a plasmid constitutively producing the β-galactosidase enzyme used for normalization of transfection efficiency (pCMV- β-Gal). […] The maximum DMSO/methanol concentrations in the exposure wells were 0.5% (v/v) in DMEM medium without phenol red (Sigma-Aldrich). After exposure, cells were lysed, and luciferase and beta-galactosidase activities were measured as luminescence and absorbance (420 nm) after the addition of luciferin and ONPG substrates, respectively, using an Enspire Multimode plate reader (PerkinElmer, Waltham, Massachusetts, USA).
Luciferase reporter gene assays were established with COS-7 cells transiently producing the LBD of gmEra (Figure S1) for evaluating the estrogenic potential of 12 bisphenols.
COS-7 cells transiently transfected with gmEra-LBD were exposed to EE2 (open circles), BPA (black circles), and 11 different BPA analogs (red squares and as indicated) at increasing concentrations. Responses are presented as mean fold activation in luciferase activity in comparison to solvent-exposed cells ± SEM from three independent experiments with three technical replicates (n = 9). The dose–response curves were created using nonlinear regression and the four parameter logistic fit in Graphpad Prism v.9. For comparison, the dose–response curve of BPA (black line) is indicated together with each individual BP tested (red line). *p < 0.05 versus solvent control by one-way ANOVA and Dunnett’s multiple comparison post hoc test.
On the technique in general: A reporter such as luciferase makes a cellular process visible.

Experiment [2] concerns the target T2, Atlantic cod androgen receptor alpha (gmAra) LBD (Gadus morhua, UniProt D5FIC7).
T2 sequence (D5FIC7 409-718): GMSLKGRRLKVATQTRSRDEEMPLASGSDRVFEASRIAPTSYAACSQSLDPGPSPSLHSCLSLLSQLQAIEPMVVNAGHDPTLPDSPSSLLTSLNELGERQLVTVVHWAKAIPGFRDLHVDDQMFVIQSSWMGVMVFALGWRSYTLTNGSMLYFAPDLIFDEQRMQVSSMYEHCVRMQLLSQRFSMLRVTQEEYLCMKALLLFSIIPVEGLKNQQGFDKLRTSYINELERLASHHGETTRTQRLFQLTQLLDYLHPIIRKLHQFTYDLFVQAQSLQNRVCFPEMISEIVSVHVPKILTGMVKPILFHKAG
As to the kind of experiment: Luciferase reporter gene assay, gmAra agonism (androgenic activity) in transfected COS-7 cells. As to conditions: COS-7, monkey, 24 h, read-out: gmAra Emax. How it is done:
as §1
Figure 3 Androgenic activity of bisphenols. COS-7 cells were transiently transfected with gmAra LBD and exposed individually to 12 bisphenol analogs at increasing concentrations. […] The dose–response curves were created using nonlinear regression and the four-parameter logistic fit in Graphpad Prism v.9. For comparison, the dose–response curve of BPA (black line) is indicated together with each individual BP tested (red line). *p < 0.05 versus solvent control by one-way ANOVA and Dunnett’s multiple comparison post hoc test.

Regarding `Oc1ccc(C2(c3ccc(O)cc3)c3ccccc3-c3ccccc32)cc1` [BPFL], the “gmEra activation, result in words” value in experiment [1] is recorded as “did not activate gmEra”. Moreover, the maximal fold induction in experiment [2] came to 1.3.
As for `CC(C)(c1ccc(OCC2CO2)cc1)c1ccc(OCC2CO2)cc1` (stereo not shown) [BADGE], the “gmEra activation, result in words” value in experiment [1] is recorded as “did not activate gmEra”. Moreover, the maximal fold induction in experiment [2] was 1.

The record behind these values is PMC11325555, “Interaction of Bisphenol A and Its Analogs with Estrogen and Androgen Receptor from Atlantic Cod (Gadus morhua)” (Environmental Science & Technology, 2024).
